Measurements: ChEMBL document CHEMBL1201861, “Genomics of Drug Sensitity in Cancer screening data, Wellcome Trust Sanger Institute”

Experiments:
Assay in all cases: cells
Conditions in all cases: Homo sapiens
COLO-800 = assay type: functional, cell-based
Description: SANGER: Inhibition of human COLO-800 cell growth in a cell viability assay.

COR-L88 = assay type: functional, cell-based
Description: SANGER: Inhibition of human COR-L88 cell growth in a cell viability assay.

Calu-6 = assay type: functional, cell-based
Description: SANGER: Inhibition of human Calu-6 cell growth in a cell viability assay.

DMS-114 = assay type: functional, cell-based
ES1 = assay type: functional, cell-based
Description: SANGER: Inhibition of human ES1 cell growth in a cell viability assay.

ES3 = assay type: functional, cell-based
Description: SANGER: Inhibition of human ES3 cell growth in a cell viability assay.

ES8 = assay type: functional, cell-based
Description: SANGER: Inhibition of human ES8 cell growth in a cell viability assay.

EW-1 = assay type: functional, cell-based
Description: SANGER: Inhibition of human EW-1 cell growth in a cell viability assay.

EW-18 = assay type: functional, cell-based
Description: SANGER: Inhibition of human EW-18 cell growth in a cell viability assay.

EW-24 = assay type: functional, cell-based
Description: SANGER: Inhibition of human EW-24 cell growth in a cell viability assay.

EW-3 = assay type: functional, cell-based
Description: SANGER: Inhibition of human EW-3 cell growth in a cell viability assay.

EOL1 = assay type: functional, cell-based
Description: SANGER: Inhibition of human EoL-1-cell cell growth in a cell viability assay.

GB-1 = assay type: functional, cell-based
Description: SANGER: Inhibition of human GB-1 cell growth in a cell viability assay.

GCIY = assay type: functional, cell-based
Description: SANGER: Inhibition of human GCIY cell growth in a cell viability assay.

GOTO = assay type: functional, cell-based
Description: SANGER: Inhibition of human GOTO cell growth in a cell viability assay.

HCE-4 = assay type: functional, cell-based
Description: SANGER: Inhibition of human HCE-4 cell growth in a cell viability assay.

HT-144 = assay type: functional, cell-based
Description: SANGER: Inhibition of human HT-144 cell growth in a cell viability assay.

HuTu80 = assay type: functional, cell-based, HUTU-80
Description: SANGER: Inhibition of human HUTU-80 cell growth in a cell viability assay.

IA-LM = assay type: functional, cell-based
Description: SANGER: Inhibition of human IA-LM cell growth in a cell viability assay.

IST-MEL1 = assay type: functional, cell-based
Description: SANGER: Inhibition of human IST-MEL1 cell growth in a cell viability assay.

IST-SL1 = assay type: functional, cell-based
Description: SANGER: Inhibition of human IST-SL1 cell growth in a cell viability assay.

JAR = assay type: functional, cell-based
Description: SANGER: Inhibition of human JAR cell growth in a cell viability assay.

K5 = assay type: functional, cell-based
Description: SANGER: Inhibition of human K5 cell growth in a cell viability assay.

KGN = assay type: functional, cell-based
Description: SANGER: Inhibition of human KGN cell growth in a cell viability assay.

KM12 = assay type: functional, cell-based
Description: SANGER: Inhibition of human KM12 cell growth in a cell viability assay.

KMOE-2 = assay type: functional, cell-based
Description: SANGER: Inhibition of human KMOE-2 cell growth in a cell viability assay.

KY821 = assay type: functional, cell-based
Description: SANGER: Inhibition of human KY821 cell growth in a cell viability assay.

LB2241-RCC = assay type: functional, cell-based
Description: SANGER: Inhibition of human LB2241-RCC cell growth in a cell viability assay.

LB771-HNC = assay type: functional, cell-based
Description: SANGER: Inhibition of human LB771-HNC cell growth in a cell viability assay.

LB831-BLC = assay type: functional, cell-based
Description: SANGER: Inhibition of human LB831-BLC cell growth in a cell viability assay.

LNCaP-Clone-FGC = assay type: functional, cell-based
Description: SANGER: Inhibition of human LNCaP-Clone-FGC cell growth in a cell viability assay.

LS-123 = assay type: functional, cell-based
Description: SANGER: Inhibition of human LS-123 cell growth in a cell viability assay.

LS-513 = assay type: functional, cell-based
Description: SANGER: Inhibition of human LS-513 cell growth in a cell viability assay.

MZ7-mel = assay type: functional, cell-based
Description: SANGER: Inhibition of human MZ7-mel cell growth in a cell viability assay.

NB6 = assay type: functional, cell-based
Description: SANGER: Inhibition of human NB6 cell growth in a cell viability assay.

NCI-H1155 = assay type: functional, cell-based
Description: SANGER: Inhibition of human NCI-H1155 cell growth in a cell viability assay.

NCI-H209 = assay type: functional, cell-based
Description: SANGER: Inhibition of human NCI-H209 cell growth in a cell viability assay.

NCI-H446 = assay type: functional, cell-based
Description: SANGER: Inhibition of human NCI-H446 cell growth in a cell viability assay.

NCI-H69 = assay type: functional, cell-based
Description: SANGER: Inhibition of human NCI-H69 cell growth in a cell viability assay.

SNU-5 = assay type: functional, cell-based
Description: SANGER: Inhibition of human NCI-SNU-5 cell growth in a cell viability assay.

OCI-AML2 = assay type: functional, cell-based
Description: SANGER: Inhibition of human OCI-AML2 cell growth in a cell viability assay.

OS-RC-2 = assay type: functional, cell-based
Description: SANGER: Inhibition of human OS-RC-2 cell growth in a cell viability assay.

P30-OHK = assay type: functional, cell-based
Description: SANGER: Inhibition of human P30-OHK cell growth in a cell viability assay.

QIMR-WIL = assay type: functional, cell-based
Description: SANGER: Inhibition of human QIMR-WIL cell growth in a cell viability assay.

RKO = assay type: functional, cell-based
Description: SANGER: Inhibition of human RKO cell growth in a cell viability assay.

RXF 393 = assay type: functional, cell-based
Description: SANGER: Inhibition of human RXF393 cell growth in a cell viability assay.

SBC-1 = assay type: functional, cell-based
Description: SANGER: Inhibition of human SBC-1 cell growth in a cell viability assay.

SHP77 = assay type: functional, cell-based, SHP-77
Description: SANGER: Inhibition of human SHP-77 cell growth in a cell viability assay.

SJSA-1 = assay type: functional, cell-based
Description: SANGER: Inhibition of human SJSA-1 cell growth in a cell viability assay.

SK-MEL-2 = assay type: functional, cell-based
Description: SANGER: Inhibition of human SK-MEL-2 cell growth in a cell viability assay.

SK-N-FI = assay type: functional, cell-based
Description: SANGER: Inhibition of human SK-N-FI cell growth in a cell viability assay.

SK-PN-DW = assay type: functional, cell-based
Description: SANGER: Inhibition of human SK-PN-DW cell growth in a cell viability assay.

SNU-C2B = assay type: functional, cell-based
Description: SANGER: Inhibition of human SNU-C2B cell growth in a cell viability assay.

SW872 = assay type: functional, cell-based
Description: SANGER: Inhibition of human SW872 cell growth in a cell viability assay.

A101D = assay type: functional, cell-based
Description: SANGER: Inhibition of human A101D cell growth in a cell viability assay.

A3-KAW = assay type: functional, cell-based
Description: SANGER: Inhibition of human A3-KAW cell growth in a cell viability assay.

A388 = assay type: functional, cell-based
Description: SANGER: Inhibition of human A388 cell growth in a cell viability assay.

A704 = assay type: functional, cell-based
Description: SANGER: Inhibition of human A704 cell growth in a cell viability assay.

ACN = assay type: functional, cell-based
Description: SANGER: Inhibition of human ACN cell growth in a cell viability assay.

BB30-HNC = assay type: functional, cell-based
Description: SANGER: Inhibition of human BB30-HNC cell growth in a cell viability assay.

BE-13 = assay type: functional, cell-based
Description: SANGER: Inhibition of human BE-13 cell growth in a cell viability assay.

C8166 = assay type: functional, cell-based
Description: SANGER: Inhibition of human C8166 cell growth in a cell viability assay.

TE-10 = assay type: functional, cell-based
Description: SANGER: Inhibition of human TE-10 cell growth in a cell viability assay.

TE-6 = assay type: functional, cell-based
Description: SANGER: Inhibition of human TE-6 cell growth in a cell viability assay.

CCRF-CEM = assay type: functional, cell-based
Description: SANGER: Inhibition of human CCRF-CEM cell growth in a cell viability assay.

COLO-668 = assay type: functional, cell-based
Description: SANGER: Inhibition of human COLO-668 cell growth in a cell viability assay.

## C[C@]1(c2nc3c(C(N)=O)cccc3[nH]2)CCCN1 [VELIPARIB]
COLO-800
  IC50: > 5 µM
COR-L88
  IC50: > 5 µM
Calu-6
  IC50: > 5 µM
DMS-114
  IC50: > 5 µM
ES1
  IC50: > 5 µM
ES3
  IC50: > 5 µM
ES8
  IC50: > 5 µM
EW-1
  IC50: > 5 µM
EW-18
  IC50: > 5 µM
EW-24
  IC50: > 5 µM
EW-3
  IC50: > 5 µM
EOL1
  IC50: 1.08 µM
GB-1
  IC50: > 5 µM
GCIY
  IC50: > 5 µM
GOTO
  IC50: > 5 µM
HCE-4
  IC50: > 5 µM
HT-144
  IC50: > 5 µM
HuTu80
  IC50: > 5 µM
IA-LM
  IC50: > 5 µM
IST-MEL1
  IC50: > 5 µM
IST-SL1
  IC50: > 5 µM
JAR
  IC50: > 5 µM
K5
  IC50: > 5 µM
KGN
  IC50: > 5 µM
KM12
  IC50: > 5 µM
KMOE-2
  IC50: > 5 µM
KY821
  IC50: > 5 µM
LB2241-RCC
  IC50: > 5 µM
LB771-HNC
  IC50: > 5 µM
LB831-BLC
  IC50: > 5 µM
LNCaP-Clone-FGC
  IC50: > 5 µM
LS-123
  IC50: > 5 µM
LS-513
  IC50: > 5 µM
MZ7-mel
  IC50: > 5 µM
NB6
  IC50: > 5 µM
NCI-H1155
  IC50: > 5 µM
NCI-H209
  IC50: > 5 µM
NCI-H446
  IC50: > 5 µM
NCI-H69
  IC50: > 5 µM
SNU-5
  IC50: 3.13 µM
OCI-AML2
  IC50: > 5 µM
OS-RC-2
  IC50: > 5 µM
P30-OHK
  IC50: > 5 µM
QIMR-WIL
  IC50: > 5 µM
RKO
  IC50: > 5 µM
RXF 393
  IC50: > 5 µM
SBC-1
  IC50: > 5 µM
SHP77
  IC50: > 5 µM
SJSA-1
  IC50: > 5 µM
SK-MEL-2
  IC50: > 5 µM
SK-N-FI
  IC50: > 5 µM
SK-PN-DW
  IC50: > 5 µM
SNU-C2B
  IC50: > 5 µM
SW872
  IC50: > 5 µM
A101D
  IC50: > 5 µM
A3-KAW
  IC50: > 5 µM
A388
  IC50: > 5 µM
A704
  IC50: > 5 µM
ACN
  IC50: > 5 µM
BB30-HNC
  IC50: > 5 µM
BE-13
  IC50: > 5 µM
C8166
  IC50: > 5 µM
TE-10
  IC50: > 5 µM
TE-6
  IC50: > 5 µM
CCRF-CEM
  IC50: > 5 µM
COLO-668
  IC50: > 5 µM

## CC[C@]1(O)C[C@@H]2CN(CCc3c([nH]c4ccccc34)[C@@](C(=O)OC)(c3cc4c(cc3OC)N(C)[C@H]3[C@@](O)(C(=O)OC)[C@H](OC(C)=O)[C@]5(CC)C=CCN6CC[C@]43[C@@H]65)C2)C1 [VINBLASTINE]
COLO-800
  IC50: 0.00334 µM
COR-L88
  IC50: 0.0243 µM
Calu-6
  IC50: > 0.1 µM
DMS-114
  IC50: 0.0209 µM
ES1
  IC50: 0.00471 µM
ES3
  IC50: 0.00277 µM
ES8
  IC50: 0.00324 µM
EW-1
  IC50: 0.00315 µM
EW-18
  IC50: > 0.1 µM
EW-24
  IC50: 0.018 µM
EW-3
  IC50: 0.0372 µM
EOL1
  IC50: 0.00126 µM
GB-1
  IC50: 0.0398 µM
GCIY
  IC50: 0.0497 µM
GOTO
  IC50: 0.00821 µM
HCE-4
  IC50: 0.0181 µM
HT-144
  IC50: 0.00332 µM
HuTu80
  IC50: 0.0123 µM
IA-LM
  IC50: 0.0686 µM
IST-MEL1
  IC50: 0.00453 µM
IST-SL1
  IC50: 0.00119 µM
JAR
  IC50: 0.000608 µM
K5
  IC50: 0.00468 µM
KGN
  IC50: 0.0333 µM
KM12
  IC50: 0.0144 µM
KMOE-2
  IC50: 0.0208 µM
KY821
  IC50: 0.00369 µM
LB2241-RCC
  IC50: 0.0101 µM
LB771-HNC
  IC50: 0.00857 µM
LB831-BLC
  IC50: 0.0212 µM
LNCaP-Clone-FGC
  IC50: 0.00828 µM
LS-123
  IC50: 0.0533 µM
LS-513
  IC50: 0.0563 µM
MZ7-mel
  IC50: 0.0111 µM
NB6
  IC50: 0.08 µM
NCI-H1155
  IC50: 0.0437 µM
NCI-H209
  IC50: 0.0131 µM
NCI-H446
  IC50: 0.00212 µM
NCI-H69
  IC50: > 0.1 µM
SNU-5
  IC50: > 0.1 µM
OCI-AML2
  IC50: > 0.1 µM
OS-RC-2
  IC50: 0.0698 µM
P30-OHK
  IC50: 0.0111 µM
QIMR-WIL
  IC50: 0.00895 µM
RKO
  IC50: 0.00824 µM
RXF 393
  IC50: 0.00144 µM
SBC-1
  IC50: 0.0081 µM
SHP77
  IC50: > 0.1 µM
SJSA-1
  IC50: 0.0121 µM
SK-MEL-2
  IC50: 0.0533 µM
SK-N-FI
  IC50: > 0.1 µM
SK-PN-DW
  IC50: 0.00614 µM
SNU-C2B
  IC50: 0.0247 µM
SW872
  IC50: > 0.1 µM
A101D
  IC50: 0.0314 µM
A3-KAW
  IC50: 0.00432 µM
A388
  IC50: 0.00691 µM
A704
  IC50: > 0.1 µM
ACN
  IC50: 0.0403 µM
BB30-HNC
  IC50: 0.00831 µM
BE-13
  IC50: 0.00142 µM
C8166
  IC50: 0.027 µM
TE-10
  IC50: 0.0215 µM
TE-6
  IC50: 0.0565 µM
CCRF-CEM
  IC50: 0.0101 µM
COLO-668
  IC50: > 0.1 µM
